According to patent publication US7256286B2, “Bryostatin analogues, synthetic methods and uses” (The Board of Trustees of the Leland Stanford Junior …, priority 1999, dated 2007):

Key:
SK-MEL-5 = assay: NCI human cancer cell line growth inhibition: SK-MEL-5; assay type: cell-based; conditions: SK-MEL-5, Melanoma
OVCAR-8 = assay: NCI human cancer cell line growth inhibition: OVCAR-8; assay type: cell-based; conditions: OVCAR-8, Ovarian
UO-31 = assay: NCI human cancer cell line growth inhibition: UO-31; assay type: cell-based; conditions: UO-31, Renal
CCRF-CEM = assay: NCI human cancer cell line growth inhibition: CCRF-CEM; assay type: cell-based; conditions: Leukemia
SN12C = assay: NCI human cancer cell line growth inhibition: SN12C; assay type: cell-based; conditions: Renal
COLO 205 = assay: NCI human cancer cell line growth inhibition: COLO 205; assay type: cell-based; conditions: COLO 205, Colon
MOLT-4 = assay: NCI human cancer cell line growth inhibition: MOLT-4; assay type: cell-based; conditions: MOLT-4, Leukemia
MDA-MB-435 = assay: NCI human cancer cell line growth inhibition: MDA-MB-435; assay type: cell-based; conditions: MDA-MB-435, Breast
SK-MEL-2 = assay: NCI human cancer cell line growth inhibition: SK-MEL-2; assay type: cell-based; conditions: SK-MEL-2, Melanoma
SR = assay: NCI human cancer cell line growth inhibition: SR; assay type: cell-based; conditions: Leukemia
SK-MEL-28 = assay: NCI human cancer cell line growth inhibition: SK-MEL-28; assay type: cell-based; conditions: SK-MEL-28, Melanoma
DU-145 = assay: NCI human cancer cell line growth inhibition: DU-145; assay type: cell-based; conditions: DU-145, Prostate
RPMI-8226 = assay: NCI human cancer cell line growth inhibition: RPMI-8226; assay type: cell-based; conditions: RPMI-8226, Leukemia
A498 = assay: NCI human cancer cell line growth inhibition: A498; assay type: cell-based; conditions: A498, Renal
SF-295 = assay: NCI human cancer cell line growth inhibition: SF-295; assay type: cell-based; conditions: SF-295, CNS
NCI-H522 = assay type: cell-based, human; conditions: NCI-H522, NSC Lung
NCI-H460 = assay type: cell-based, human; conditions: NCI-H460, NSC Lung
NCI-H226 = assay type: cell-based, human; conditions: NCI-H226, NSC Lung
T-47D = assay: NCI human cancer cell line growth inhibition: T-47D; assay type: cell-based; conditions: Breast
SF-539 = assay: NCI human cancer cell line growth inhibition: SF-539; assay type: cell-based; conditions: SF-539, CNS
SW-620 = assay: NCI human cancer cell line growth inhibition: SW-620; assay type: cell-based; conditions: SW-620, Colon
UACC-62 = assay: NCI human cancer cell line growth inhibition: UACC-62; assay type: cell-based; conditions: UACC-62, Melanoma
HT29 = assay: NCI human cancer cell line growth inhibition: HT29; assay type: cell-based; conditions: HT29, Colon
A549/ATCC = assay: NCI human cancer cell line growth inhibition: A549/ATCC; assay type: cell-based; conditions: NSC Lung
MCF7 = assay: NCI human cancer cell line growth inhibition: MCF7; assay type: cell-based; conditions: MCF7, Breast
SK-OV-3 = assay: NCI human cancer cell line growth inhibition: SK-OV-3; assay type: cell-based; conditions: SK-OV-3, Ovarian
HCT-116 = assay: NCI human cancer cell line growth inhibition: HCT-116; assay type: cell-based; conditions: HCT-116, Colon
HOP-92 = assay: NCI human cancer cell line growth inhibition: HOP-92; assay type: cell-based; conditions: HOP-92, NSC Lung
U251 = assay: NCI human cancer cell line growth inhibition: U251; assay type: cell-based; conditions: U251, CNS
TK-10 = assay: NCI human cancer cell line growth inhibition: TK-10; assay type: cell-based; conditions: TK-10, Renal
RXF-393 = assay: NCI human cancer cell line growth inhibition: RXF-393; assay type: cell-based; conditions: RXF-393, Renal
K-562 = assay: NCI human cancer cell line growth inhibition: K-562; assay type: cell-based; conditions: K-562, Leukemia
UACC-257 = assay: NCI human cancer cell line growth inhibition: UACC-257; assay type: cell-based; conditions: UACC-257, Melanoma
MDA-N = assay: NCI human cancer cell line growth inhibition: MDA-N; assay type: cell-based; conditions: Breast
MDA-MB-231/ATCC = assay: NCI human cancer cell line growth inhibition: MDA-MB-231/ATCC; assay type: cell-based; conditions: Breast
BT-549 = assay: NCI human cancer cell line growth inhibition: BT-549; assay type: cell-based; conditions: BT-549, Breast
NCI-H23 = assay type: cell-based, human; conditions: NCI-H23, NSC Lung
HOP-62 = assay: NCI human cancer cell line growth inhibition: HOP-62; assay type: cell-based; conditions: HOP-62, NSC Lung
786-0 = assay: NCI human cancer cell line growth inhibition: 786-0; assay type: cell-based; conditions: 786-0, Renal
MALME-3M = assay: NCI human cancer cell line growth inhibition: MALME-3M; assay type: cell-based; conditions: Melanoma
OVCAR-4 = assay: NCI human cancer cell line growth inhibition: OVCAR-4; assay type: cell-based; conditions: OVCAR-4, Ovarian
SF-268 = assay: NCI human cancer cell line growth inhibition: SF-268; assay type: cell-based; conditions: SF-268, CNS
EKVX = assay: NCI human cancer cell line growth inhibition: EKVX; assay type: cell-based; conditions: NSC Lung
OVCAR-3 = assay: NCI human cancer cell line growth inhibition: OVCAR-3; assay type: cell-based; conditions: OVCAR-3, Ovarian
SNB-75 = assay: NCI human cancer cell line growth inhibition: SNB-75; assay type: cell-based; conditions: SNB-75, CNS
MI4 = assay: NCI human cancer cell line growth inhibition: MI4; assay type: cell-based; conditions: MI4, Melanoma
LOX IMVI = assay: NCI human cancer cell line growth inhibition: LOX IMVI; assay type: cell-based; conditions: Melanoma
HL-60(TB) = assay: cells; assay type: cell-based, human
HCC-2998 = assay: NCI human cancer cell line growth inhibition: HCC-2998; assay type: cell-based; conditions: HCC-2998, Colon
OVCAR-5 = assay: NCI human cancer cell line growth inhibition: OVCAR-5; assay type: cell-based; conditions: OVCAR-5, Ovarian
SNB-19 = assay: NCI human cancer cell line growth inhibition: SNB-19; assay type: cell-based; conditions: SNB-19, CNS
CAKI-1 = assay: NCI human cancer cell line growth inhibition: CAKI-1; assay type: cell-based; conditions: CAKI-1, Renal
NCI/ADR-RES = assay type: cell-based, human; conditions: Breast
HCT-15 = assay: NCI human cancer cell line growth inhibition: HCT-15; assay type: cell-based; conditions: HCT-15, Colon
PC-3 = assay: NCI human cancer cell line growth inhibition: PC-3; assay type: cell-based; conditions: PC-3, Prostate
HS 578T = assay: NCI human cancer cell line growth inhibition: HS 578T; assay type: cell-based; conditions: Breast
ACHN = assay: NCI human cancer cell line growth inhibition: ACHN; assay type: cell-based; conditions: Renal
IGROVI = assay: NCI human cancer cell line growth inhibition: IGROVI; assay type: cell-based; conditions: Ovarian
KM12 = assay: NCI human cancer cell line growth inhibition: KM12; assay type: cell-based; conditions: KM12, Colon

## CCC/C=C/C=C/C(=O)O[C@H]1/C(=C/C(=O)OC)C[C@H]2C[C@H]([C@@H](C)O)OC(=O)C[C@H](O)C[C@@H]3C[C@H](OC(C)=O)C(C)(C)[C@](O)(C[C@@H]4C/C(=C/C(=O)OC)C[C@H](/C=C/C(C)(C)[C@]1(O)O2)O4)O3 [Bryo-1, reference compound]
SK-MEL-5
  Growth inhibition (GI50): −5.70 log of molar concentration
OVCAR-8
  Growth inhibition (GI50): −5.10 log of molar concentration
UO-31
  Growth inhibition (GI50): −5.60 log of molar concentration
CCRF-CEM
  Growth inhibition (GI50): −5.30 log of molar concentration
SN12C
  Growth inhibition (GI50): −5.10 log of molar concentration
COLO 205
  Growth inhibition (GI50): −5.40 log of molar concentration
MOLT-4
  Growth inhibition (GI50): −5.50 log of molar concentration
MDA-MB-435
  Growth inhibition (GI50): −5.10 log of molar concentration
SK-MEL-2
  Growth inhibition (GI50): −5.20 log of molar concentration
SR
  Growth inhibition (GI50): >−5 log of molar concentration
SK-MEL-28
  Growth inhibition (GI50): −5.10 log of molar concentration
DU-145
  Growth inhibition (GI50): >−5 log of molar concentration
RPMI-8226
  Growth inhibition (GI50): >−5 log of molar concentration
A498
  Growth inhibition (GI50): >−5 log of molar concentration
SF-295
  Growth inhibition (GI50): −5.20 log of molar concentration
NCI-H522
  Growth inhibition (GI50): >−5 log of molar concentration
NCI-H460
  Growth inhibition (GI50): −5.60 log of molar concentration
NCI-H226
  Growth inhibition (GI50): >−5 log of molar concentration
T-47D
  Growth inhibition (GI50): −5.20 log of molar concentration
SF-539
  Growth inhibition (GI50): >−5 log of molar concentration
SW-620
  Growth inhibition (GI50): −5.50 log of molar concentration
UACC-62
  Growth inhibition (GI50): −5.30 log of molar concentration
HT29
  Growth inhibition (GI50): −5.30 log of molar concentration
A549/ATCC
  Growth inhibition (GI50): −5.20 log of molar concentration
MCF7
  Growth inhibition (GI50): −5.20 log of molar concentration
SK-OV-3
  Growth inhibition (GI50): −5.10 log of molar concentration
HCT-116
  Growth inhibition (GI50): −5.30 log of molar concentration
HOP-92
  Growth inhibition (GI50): −5.30 log of molar concentration
U251
  Growth inhibition (GI50): −5.10 log of molar concentration
TK-10
  Growth inhibition (GI50): >−5 log of molar concentration
RXF-393
  Growth inhibition (GI50): −5.30 log of molar concentration
K-562
  Growth inhibition (GI50): −5.40 log of molar concentration
UACC-257
  Growth inhibition (GI50): −5.10 log of molar concentration
MDA-N
  Growth inhibition (GI50): −5.10 log of molar concentration
MDA-MB-231/ATCC
  Growth inhibition (GI50): −5.20 log of molar concentration
BT-549
  Growth inhibition (GI50): −5.10 log of molar concentration
NCI-H23
  Growth inhibition (GI50): >−5 log of molar concentration
HOP-62
  Growth inhibition (GI50): >−5 log of molar concentration
786-0
  Growth inhibition (GI50): −5.20 log of molar concentration
MALME-3M
  Growth inhibition (GI50): −5.20 log of molar concentration
OVCAR-4
  Growth inhibition (GI50): −5.50 log of molar concentration
SF-268
  Growth inhibition (GI50): −5.10 log of molar concentration
EKVX
  Growth inhibition (GI50): −5.30 log of molar concentration
OVCAR-3
  Growth inhibition (GI50): −5.10 log of molar concentration
SNB-75
  Growth inhibition (GI50): −5.50 log of molar concentration
MI4
  Growth inhibition (GI50): >−5 log of molar concentration
LOX IMVI
  Growth inhibition (GI50): −5.10 log of molar concentration
HL-60(TB)
  Growth inhibition (GI50): −5.70 log of molar concentration
HCC-2998
  Growth inhibition (GI50): −5.30 log of molar concentration
OVCAR-5
  Growth inhibition (GI50): >−5 log of molar concentration
SNB-19
  Growth inhibition (GI50): >−5 log of molar concentration
CAKI-1
  Growth inhibition (GI50): −5.40 log of molar concentration
NCI/ADR-RES
  Growth inhibition (GI50): >−5 log of molar concentration
HCT-15
  Growth inhibition (GI50): >−5 log of molar concentration
PC-3
  Growth inhibition (GI50): −5.30 log of molar concentration
HS 578T
  Growth inhibition (GI50): −5.2 log of molar concentration
ACHN
  Growth inhibition (GI50): −5.50 log of molar concentration
IGROVI
  Growth inhibition (GI50): −5.30 log of molar concentration
KM12
  Growth inhibition (GI50): −5.20 log of molar concentration
